Measured values taken from US20030008857A1, “Photodynamic therapy (PDT) in combination with factors that bind cell surface apoptosis-inducing receptors” (priority 1999, published 2003).
Entries after “also recorded” stand apart in the source; their conditions may differ.

Key:
[1] = tested on: caspase-3, -6, -8 and -9 and PARP; test: Western immunoblot of caspase processing and PARP cleavage in Jurkat cells; assay type: cell-based, human
Method: The human Jurkat T cell line containing a neomycin resistance gene was obtained from Dr. Charles Rudin (University of Chicago). Cells were maintained in RPMI 1640 medium containing 10% heat-inactivated fetal calf serum (FCS) with penicillin (100 U/mL), streptomycin (100 μg/mL), 20 mM HEPES, 2 mM L-glutamine and G418 (1 μg/ml) purchased from Gibco BRL (Burlington, Ontario) in a CO2 incubator at 37° C. To elicit apoptosis with PDT, Jurkat cells were incubated with different amounts of liposomally formulated benzoporphyrin derivative monoacid ring A (BPD-MA, verteporfin, QLT PhotoTherapeutics, Inc., Vancouver, Canada) for one hour at 37° C. under light-protected conditions. The culture medium used for experiments was identical to that used for the passage of the cells except that FCS was used at a concentration of 5%. Experiments were conducted either in 6-well culture plates at 5×10^6 cells in a volume of 4 ml per well or in 96-well microtiter plates at 1×10^5 cells per well at 0.2 ml per well. Cells were irradiated with light of a wavelength of 690 nm delivered at 65-73 mW/sec from light emitting diodes (LED) to achieve a total light dose of 5 J/cm^2. Cells were returned to the incubator until required for analysis.
FasL and TRAIL as used were recombinant preparations. FasL was obtained from Upstate Biotechnology (Lake Placid NY) and corresponded to amino acids 103-281 of the soluble domain of human FasL. TRAIL was obtained from BIOMOL Research Laboratories (Plymouth Meeting, Pa.) and corresponded to residues 114-281 of the soluble domain of human TRAIL. FasL and TRAIL were usually added immediately following the treatment of cells with PDT, although in one series of experiments these factors were added at 1, 2 or 3 hours post-irradiation.
Whole cell lysates were prepared by washing 1×10^7 cells per sample twice with ice-cold PBS. Cells were disrupted with 1 mL of lysis buffer [1% Nonidet P-40 detergent (NP-40), 20 mM Tris-HCl, pH 8.0, 137 mM NaCl, 10% glycerol, 1 mM phenylmethylsulfonyl fluoride (PMSF) aprotinln (0.15 U/mL) and 1 mM sodium orthovanadate] for 20 minutes on ice. Lysates were centrifuged for 10 minutes at 15,800×g at 4° C.
To evaluate the activation state of different caspases and the status of other cellular proteins, whole cell lysates were separated by sodium dodecyl sulphate polyacrylamide gel electrophoresis (SDS-PAGE). Specifically, detergent-soluble proteins were separated by SDS-PAGE within 10% gels under reducing conditions as described by Laemmli et al. (“Cleavage of Structural Proteins During the Assembly of the Head of Bacteriophage T4”, Nature, 227, 680-685 (1970)). The proteins were transferred to nitrocellulose membranes at 100 volts for one hour. […]

[2] = tested on: HeLa/Bcl-2 cells; test: MTT cell viability assay; assay type: cell-based
Method: (§1) HeLa cells were from the American Type Culture Collection (Manassas, Va.). Cells were grown in Dulbecco's modified Eagles medium (DMEM) supplemented with penicillin (100 U/ml), streptomycin (100 μg/ml), 2 mM L-glutamine, 1 mM HEPES buffer, and 10% heat-inactivated fetal bovine serum (FBS). HeLa cells over-expressing Bcl-2 and Bcl-xL were generated as described (Vander Heiden et al.). Briefly, Bcl-2 and Bcl-xL inserts were cloned into an EcoRI site of a pSFFV-neo vector (Fuhlbrigge et al.). Vectors containing inserts, or no insert (neo), were transfected into HeLa cells by electroporation. After selection in G418 (Gibco/BRL Life Technologies), cells were cloned by limiting dilution and transfectants screened for Bcl-xL or Bcl-2 by Western blot analysis. Transfected cell lines were maintained in complete DMEM with G418 (10 μg/ml).
(§2) For treatments with TRAIL and PDT, cells were incubated with 0-100 ng/ml verteporfin for 60 min at 37° C. in complete DMEM with 2% FBS or incubated with medium alone. Cells were light protected or exposed to blue fluorescent light to give a total dose of 1 J/cm^2. For experiments where cells were treated with 0-1000 ng/ml TRAIL (BIOMOL, Plymouth Meeting, Pa.), this compound was added immediately after light treatment to HeLa cells in complete DMEM with 10% FBS. Cells were maintained at 37° C. with 5% CO2
(§3) To assess their viability, cells were cultured in 96-well microtiter plates and the MTT (3-(4,5)-dimethylthiazol-2-yl)-2,5-diphenyl tetrazolium bromide) calorimetric assay was performed as described (Mosmann et al.) with modifications. Following treatment, culture medium was decanted and replaced with complete DMEM containing 10% FBS. At 24 h following treatment, culture medium was aspirated and 50 μg of MTT in 100 μl of DMEM containing 2% FBS was added to each well. The reaction was stopped 2 h later by the addition of 150 μl of acidified isopropanol. Color development was measured at 590 nm with a microtiter plate reader. The result obtained for PDT, TRAIL or TRAIL plus PDT treatments was compared to the MTT value obtained for cells not given any treatment and expressed as percentages (%) of the control result.

[3] = tested on: HeLa/Bcl-xL cells; test: MTT cell viability assay; assay type: cell-based
Method: as §1, §2, §3

[4] = tested on: HeLa/neo cells; test: MTT cell viability assay; assay type: cell-based
Method: as §1, §2, §3

[5] = TRAIL in combination with verteporfin PDT, 24 hours
[6] = TRAIL up to 25 ng/ml, 24 hours post-treatment
[7] = PDT with verteporfin at 25 or 50 ng/ml, blue fluorescent light 1 J/cm^2, 24 hours

Substance | caspase processing and PARP degradation compared with PDT or the factor alone ([1]; FasL 7.5 ng/ml or TRAIL 20 ng/ml combined with verteporfin PDT, 3 hours) | processing of caspases and PARP by the factor alone ([1]; FasL 7.5 ng/ml or TRAIL 20 ng/ml, 3 hours) | cell viability ([2]; TRAIL at 500 ng/ml, 24 hours) | cell viability compared with PDT or TRAIL alone and with the expected additive effect [2, 5] | cell viability [2, 6] | cell viability ([3]; TRAIL at 500 ng/ml, 24 hours) | cell viability compared with PDT or TRAIL alone and with the expected additive effect [3, 5] | cell viability [3, 6] | cell viability ([4]; TRAIL at 500 ng/ml, 24 hours) | cell viability ([4]; TRAIL at 50 and 100 ng/ml, 24 hours) | cell viability compared with PDT or TRAIL alone and with the expected additive effect [4, 5] | cell viability [4, 6] | caspase processing after PDT alone ([1]; increasing verteporfin concentrations, 5 J/cm^2, 3 hours after irradiation) | caspase-3, -8, -9 and PARP processing after PDT alone ([1]; verteporfin 5 ng/ml, 5 J/cm^2, 3 hours (FIG. 8)) | cell viability [2, 7] | cell viability [3, 7] | cell viability [4, 7]
TRAIL: recombinant, residues 114-281 of the soluble domain of human TRAIL (BIOMOL) | more extensive caspase processing and PARP degradation; also recorded: a higher degree of processing | minor processing; also recorded: little detectable processing | a significant degree of protection against TRAIL | significantly decreased cell viability | little or no loss of cell viability | a significant degree of protection against TRAIL | significantly decreased cell viability | little or no loss of cell viability | a complete loss of viability | a loss in viability | significantly decreased cell viability | little or no loss of cell viability | – | – | – | – | –
benzoporphyrin derivative monoacid ring A [verteporfin, reference compound] | – | – | – | – | – | – | – | – | – | – | – | – | evidence of caspase-3, -6, -8 and -9 processing; also recorded: processing of caspases-3, -6, -8 and -9 | a moderate degree | some loss in viability | some loss in viability | some loss in viability
